Source: patent US8470763B2, “Alpha-amino-N-substituted amides, pharmaceutical composition containing them and uses thereof” (Shanghai Institute of Materia Medica Chinese Academy of …, priority 2007, dated 2013)
Like-named read-outs stand apart in the source and are kept apart here.

Assays:
[1] = tested on: MDA-MB-435S human breast cancer cells; test: MTT assay, proliferation of MDA-MB-435S cells; type: cell-based; details: 72 h
Protocol: The experiments for evaluating the antineoplasmic activities of the compounds according to the present invention were carried out, and the compounds' antineoplasmic activities in vitro was evaluated by determining the inhibitory activities thereof against the proliferation of MDA-MB-435S human breast cancer cells.
The antineoplasmic activities were determined by using the MTT assay, which is based on the metabolic reduction of 3-(4,5-dimethylthylthiazol-2-yl)-2,5-diphenyl tetrazolium bromide (MTT). The dehydrogenases, which are related to NADP (niacinamide adenine dinucleotide phosphate, coenzyme) and present in mitochondrions of living cells, can reduce the yellow MTT to an insoluble, dark purple formazan. […] After the formazan is dissolved in DMSO, the optical density is determined on an ELISA Reader at the wavelength of 550/690 nm.
(§1) The adhered MDA-MB-4355 cells in logarithmic growth phase, were digested by 0.05% trypsogen, counted and formulated into a cell suspension with a medium. After counted, the suspension was inoculated on a 96-well plate with 3000 cells and 100 μl medium per well. The inoculated 96-well plate was placed overnight in an incubator at 37 with 5% CO2 to allow the cells to adhere to the wall. On the next day, the administration of the drugs started. Before the administration, into some of the control wells, each was added 20 μl of the MTT solution (5 mg/ml) without removing the medium therein. After incubated for 3 h, the absorption at A550/690 was recorded as the initial cell concentration. For the drug wells, each was added into 100 μl of medium containing 2 μl of compound solution. For the control wells which use DMSO as background control, each was also added into 100 μl of medium containing 2 μl of DMSO. In addition, each experiment was carried out with adriamycin as the positive control. Subsequently, the 96-well plate was incubated in an incubator at 37 with 5% CO2 for 72 h. each compound was tested in triplicate wells (6 μl of compound solution was put into a sterilized eppendorf centrifuge tube, then 300 μl of medium was added and mixed well, and the mixture was distributed into 3 wells respectively), and at six concentrations which form a gradient. 3 days (72 h) later, 40 μl of MTT solution (5 mg/ml) was put into each well directly (without sucking off the medium therein), and the plate was incubated in the incubator for 3 h and then taken out. The liquid in each well was sucked off, and then 100 μl of DMSO was put into each well to dissolve the crystal completely with slight shake. The absorbance of the solution in each well was determined at 550/690 nm on an ELISA Reader as the cell density after treated with the compound. The growth inhibition of compound against breast cancer cells MDA-MB-435S was represented by the cell survival rate, and IC50 was determined from the profile of cell survival rate vs compound concentration. The calculating formula was as follows: cell survival rate=[(cells+compound)A550/690/(cells+compound vector DMSO)A550/690]×100%

[2] = tested on: colon cancer cells HCT116; test: MTT assay, HCT116 cells; type: cell-based; details: Homo sapiens, HCT-116, 72 h
Protocol: as §1
(§2) MDA-MB-435S: human breast cancer cells; HCT116: colon cancer cells; A549: lung adenocarcinoma cells; Hela: uterine cervix cancer cells.
(§3) The tests were performed in the same manner as that of experimental example 1, except that for Hela cells, after counted, each well was seeded with 1000 cells and 100 μl of medium on a 96-well plate.

[3] = tested on: Hela uterine cervix cancer cells; test: MTT assay, Hela cells; type: cell-based; details: Homo sapiens, 72 h, 1000 cells per well
Protocol: as §1, §2, §3

A549 (Lung Cancer) = test: SRB assay, A549; type: cell-based; details: Homo sapiens, 72 h, read-out: IC50 (μM) (mean ± SD)
Protocol: (§4) Experimental method: The antineoplasmic activities in vitro of the compounds were determined by SRB assay. The detailed procedure was as follows. The cells in the logarithmic growth phase were inoculated on a 96-well microculture plate with a suitable density (100 μl/well), and allowed to attach overnight, followed by addition of the compound at different concentrations to be treated for 72 h. For each concentration, the test was carried out in triplicate wells, and included control wells containing the aqueous medium of normal saline and a blank well containing all medium without cells for zeroing. After cultured overnight, the cells were treated with the compound at different concentrations for 72 h. After the treatment, the culture medium was removed, and the cells were fixed with 10% (wt/vol) trichloroacetic acid (100 μL/well) at 4° C. for 1 h. The cells were then washed with distilled water for 5 times, and died at room temperature, followed by addition of a SRB solution (4 mg/mL, dissolved in 1% glacial acetic acid) at 100 μL/well. The cells were incubated and stained at room temperature for 15 min, then washed with 1% glacial acetic acid for 5 times to remove the uncombined SRB, and died at room temperature. 100 μL of 10 mM Tris solution was added in each well, and the Optical Density (OD) were measured at a wavelength of 560 nm on a VERSMax ELISA Reader (Molecule Devices). The growth inhibition of the compound against tumor cells was calculated according to the following equation: Growth inhibition (%)=(ODcontrol−ODtreated)/ODcontrol×100%.
(§5) IC50 (the concentration of the sample compound that is required for 50% inhibition of cell growth) was calculated by using the Logit method based on the measurement, and each test was repeated for 3 times to calculate the mean value and standard deviation.

HO-8910 (Ovarian Cancer) = test: SRB assay, HO-8910; type: cell-based; details: 72 h, read-out: IC50 (μM) (mean ± SD)
Protocol: as §4, §5

DU145 (Prostatic Cancer) = test: SRB assay, DU145; type: cell-based; details: Homo sapiens, DU-145, 72 h, read-out: IC50 (μM) (mean ± SD)
Protocol: as §4, §5

SMMC-7721 (Liver Cancer) = test: SRB assay, SMMC-7721; type: cell-based; details: Homo sapiens, 72 h, read-out: IC50 (μM) (mean ± SD)
Protocol: as §4, §5

[4] = tested on: HPAF-II (Pancreatic Cancer); test: SRB assay, HPAF-II; type: cell-based; details: Homo sapiens, 72 h, read-out: IC50 (μM) (mean ± SD)
Protocol: as §4, §5

HMEC (Others) = test: SRB assay, HMEC; type: cell-based; details: Homo sapiens, 72 h, read-out: IC50 (μM) (mean ± SD)
Protocol: as §4, §5

[5] = tested on: human breast cancer cells MDA-MB-435 transplanted on nude mice; details: mouse, in vivo
Protocol: (§6) Dosage: among 3 groups, the dosages of L538 were set at 5, 10 and 20 mg/kg as the high, middle and low dosages, respectively, administrating intravenously 3 times a week; while MMC was administrated intravenously at the first day whit a dosage of 5 mg/kg.
(§7) Animals: BALB/CA nude mice, male, 40-45 days old, body weight: 18±1 g, provided by Shanghai Institute of Materia Medica, Chinese Academy of Sciences. […] Animal number in each group: 7 in negative control group, and 4 in administration group.
(§8) The amount of inoculated cells was 5×10^6. After the transplanted tumor was formed by inoculation, it was used after passed for 3 generations in nude mice.
(§9) Experimental procedure: tumor tissue in productive phase was cut into nubs of about 1.5 mm^3. Under sterile conditions, the nubs were inoculated subcutaneously in right axillary fossa of the nude mice. The diameters of the transplanted tumors on nude mice were measured by a vernier caliper. When the tumors grew up to 100-200 mm^3, the animals were divided randomly into groups. Mice in experimental groups were administered intravenously every other day. […] The total administration duration was 3 weeks. For the positive control, MMC, Mice were administered intravenously once at the first day of a week, and the total administration duration was 3 weeks. Mice in control groups were administrated physiologic saline in equivalent amount. The diameter of the tumor and weight of mice were measured twice a week. The equation for calculating the TV (tumor volume) was as follows: TV=½×a×b^2, • wherein, a is length and b is width. RTV (relative tumor volume) was calculated based on the measured results, and the equation thereof was as follows: RTV=Vt/V0 • wherein, V0 is the tumor volume measured when the mice were grouped (i.e. d0), and Vt is the tumor volume at each measurement. The evaluation index for the antitumor activity was the relative tumor proliferation rateT/C (%).
(§10) The calculation equation was as follows: T/C(%)=(TRTV/CRTV)×100, • wherein, TRTV is the RTV of therapeutic Group and CRTV is RTV of negative control group.

[6] = tested on: human breast cancer cells MDA-MB-435 transplanted on nude mice; test: Antineoplasmic activity in vivo, MDA-MB-435 transplanted tumor on nude mice; details: for Body Weight(g) Ultimate / TV (mm^3) d21 / RTV: q3w × 3w; for Body Weight(g) Ultimate: i.v. 4 times then peritoneally 5 times; for RTV: d21
Protocol: as §6, §7, §8, §9, §10

Structure (SMILES): CO[C@@H](C(=O)N[C@@H](C)C(=O)NCCOC(=O)C12CC3CC(CC(C3)C1)C2)[C@H](O)[C@@H](O)[C@H](O)/C=C/C(C)(C)C [Compound L538]
- IC50 ([1]; read-out: Cell Survival Rate IC50): 0.49 µM
- IC50 ([1]; Homo sapiens, note: MDA-MB-435S, read-out: IC50 (MDA-MB-435)): 0.494 ± 0.139 µM
- IC50 ([1]; Homo sapiens, read-out: Cell Survival Rate IC50): 0.43 µM
- IC50 [2]: 0.098 ± 0.009 µM
- IC50 [3]: 0.091 ± 0.019 µM
- IC50 (A549 (Lung Cancer)): 0.02 ± 0.004 µM
- IC50 (HO-8910 (Ovarian Cancer)): > 20 µM
- IC50 (DU145 (Prostatic Cancer)): 0.14 ± 0.04 µM
- IC50 (SMMC-7721 (Liver Cancer)): 0.58 ± 0.04 µM
- IC50 [4]: 0.65 ± 0.21 µM
- IC50 (HMEC (Others)): 0.17 ± 0.06 µM
- dead nude mice [5]: none of the experimental groups had dead nude mice
- growth inhibition of transplanted tumor, conclusion ([6]; 5, 10 and 20 mg/kg, 3 weeks): can significantly depress the growth
- T/C (%) ([6]; L538 5 mg/kg, q3w × 3w (low dosage group), P >0.05): 64.7%
- Body Weight(g) Ultimate ([6]; L538 5 mg/kg, initial 19.3 g): 23.5 g
- TV (mm^3) d21 ([6]; L538 5 mg/kg, d0 131 ± 59): 1144 ± 353 mm^3
- RTV ([6]; L538 5 mg/kg): 9.6 ± 3.5
- T/C (%) ([6]; L538 10 mg/kg, q3w × 3w (middle dosage group), P <0.05): 47.1%
- Body Weight(g) Ultimate ([6]; L538 10 mg/kg, initial 17.7 g): 21.7 g
- TV (mm^3) d21 ([6]; L538 10 mg/kg, d0 133 ± 49): 951 ± 619 mm^3
- RTV ([6]; L538 10 mg/kg): 6.9 ± 3.6
- T/C (%) ([6]; L538 20 mg/kg, q3w × 3w (high dosage group), P <0.05): 36.0%
- Body Weight(g) Ultimate ([6]; L538 20 mg/kg, initial 18.5 g): 19.7 g
- TV (mm^3) d21 ([6]; L538 20 mg/kg, d0 135 ± 37): 735 ± 501 mm^3
- RTV ([6]; L538 20 mg/kg): 5.3 ± 3.1
- tail stimulus on intravenous administration ([6]; after administered intravenously 4 times, every other day): too strong tail stimulus to be administered intravenously
- increase in body weight ([6]; high dosage group): did not have an significant increase in body weight
- growth inhibition of transplanted tumor ([6]; low dosage group): did not be depressed obviously
